Earlier results in PubChem BioAssay AID1259409 (Chemical Carcinogenesis Research Information System (CCRIS), 2018).

Test system: rodent chemically induced tumor inhibition, incidence and multiplicity
Experiment: CCRIS tumor inhibitor studies

## CC1=C(/C=C/C(C)=C/C=C/C(C)=C\C(=O)O)C(C)(C)CCC1
Carcinogen: N-BUTYL-N-(4-HYDROXYBUTYL)NITROSAMINE, 3817-11-6, Dose [Inhibitor]: 200 MG/KG DIET DAILY STARTING 7 D AFTER LAST CARCINOGEN DOSE AND CONTINUING THROUGH THE END OF STUDY (STUDY DURATION: 6, Route [Inhibitor]: ORAL, Species: MOUSE, Strain/Sex: C57BL/MALE, Target Tissue: Type of Lesion: URINARY BLADDER: TRANSITIONAL AND SQUAMOUS CELL CARCINOMA, Dose [Carcinogen]: 7.5 MG 2/WK FOR 6 WK, Promoter: NONE USED
  tumour outcome (control, treated, inhibition, significance): 8/24 (33%), 0/19 (0%), 100%, p<0.01
Carcinogen: N-BUTYL-N-(4-HYDROXYBUTYL)NITROSAMINE, 3817-11-6, Dose [Inhibitor]: 200 MG/KG DIET DAILY STARTING 7 D AFTER LAST CARCINOGEN INTUBATION AND CONTINUING THROUGH THE END OF STUDY (STUDY DURATI, Route [Inhibitor]: ORAL, Species: MOUSE, Strain/Sex: C57BL/MALE, Target Tissue: Type of Lesion: URINARY BLADDER: NEOPLASM (CARCINOMA, NONINVASIVE TRANSITIONAL CELL PAPILLOMA), Dose [Carcinogen]: 10 MG 2/WK FOR 7 WK, Promoter: NONE USED
  tumour outcome (control, treated, inhibition, significance): 12/22 (55%), 8/25 (32%), 42%, not significant
Carcinogen: N-BUTYL-N-(4-HYDROXYBUTYL)NITROSAMINE, 3817-11-6, Dose [Inhibitor]: 200 MG/KG DIET DAILY STARTING 7 D AFTER LAST CARCINOGEN INTUBATION AND CONTINUING THROUGH THE END OF STUDY (STUDY DURATI, Route [Inhibitor]: ORAL, Species: MOUSE, Strain/Sex: C57BL/MALE, Target Tissue: Type of Lesion: URINARY BLADDER: SQUAMOUS CELL CARCINOMA, Dose [Carcinogen]: 7.5 MG 2/WK FOR 6 WK, Promoter: NONE USED
  outcome: 6/24 (25%), 0/19 (0%), p<0.05
Carcinogen: N-BUTYL-N-(4-HYDROXYBUTYL)NITROSAMINE, 3817-11-6, Dose [Inhibitor]: 200 MG/KG DIET DAILY STARTING 7 D AFTER LAST CARCINOGEN INTUBATION AND CONTINUING THROUGH THE END OF STUDY (STUDY DURATI, Route [Inhibitor]: ORAL, Species: MOUSE, Strain/Sex: C57BL/MALE, Target Tissue: Type of Lesion: URINARY BLADDER: SQUAMOUS CELL CARCINOMA, Dose [Carcinogen]: 10 MG 2/WK FOR 7 WK, Promoter: NONE USED
  tumour outcome (control, treated, inhibition, significance): 6/22 (27%), 5/25 (20%), 26%, not significant
Carcinogen: N-BUTYL-N-(4-HYDROXYBUTYL)NITROSAMINE, 3817-11-6, Dose [Inhibitor]: 200 MG/KG DIET DAILY STARTING 7 D AFTER LAST CARCINOGEN INTUBATION AND CONTINUING THROUGH THE END OF STUDY (STUDY DURATI, Route [Inhibitor]: ORAL, Species: MOUSE, Strain/Sex: C57BL/MALE, Target Tissue: Type of Lesion: URINARY BLADDER: TRANSITIONAL AND SQUAMOUS CELL CARCINOMA, Dose [Carcinogen]: 10 MG 2/WK FOR 7 WK, Promoter: NONE USED
  tumour outcome (control, treated, inhibition, significance): 10/22 (45%), 7/25 (28%), 38%, not significant
Carcinogen: N-BUTYL-N-(4-HYDROXYBUTYL)NITROSAMINE, 3817-11-6, Dose [Inhibitor]: 240 MG/KG DIET DAILY STARTING 1, 5 OR 9 WK AFTER LAST CARCINOGEN INTUBATION AND CONTINUING THROUGH THE END OF STUDY (STU, Route [Inhibitor]: ORAL, Species: RAT, Strain/Sex: F344/MALE, Target Tissue: Type of Lesion: URINARY BLADDER: TRANSITIONAL CELL CARCINOMA, Dose [Carcinogen]: 100 MG 2/WK FOR 6 WK, Promoter: NONE USED
  tumour outcome (control, treated, inhibition, significance): 53%, 47%, 11%, not significant
Carcinogen: N-BUTYL-N-(4-HYDROXYBUTYL)NITROSAMINE, 3817-11-6, Dose [Inhibitor]: 240 MG/KG DIET DAILY STARTING 1, 5 OR 9 WK AFTER LAST CARCINOGEN INTUBATION AND CONTINUING THROUGH THE END OF STUDY (STU, Route [Inhibitor]: ORAL, Species: RAT, Strain/Sex: F344/MALE, Target Tissue: Type of Lesion: URINARY BLADDER: TRANSITIONAL CELL CARCINOMA, Dose [Carcinogen]: 150 MG 2/WK FOR 6 WK, Promoter: NONE USED
  tumour outcome (control, treated, inhibition, significance): 82%, 65%, 21%, p<0.01
Carcinogen: N-BUTYL-N-(4-HYDROXYBUTYL)NITROSAMINE, 3817-11-6, Dose [Inhibitor]: 240 MG/KG DIET DAILY STARTING 1, 5 OR 9 WK AFTER LAST CARCINOGEN INTUBATION AND CONTINUING THROUGH THE END OF STUDY (STU, Route [Inhibitor]: ORAL, Species: RAT, Strain/Sex: F344/MALE, Target Tissue: Type of Lesion: URINARY BLADDER: TRANSITIONAL CELL CARCINOMA, Dose [Carcinogen]: 200 MG 2/WK FOR 6 WK, Promoter: NONE USED
  tumour outcome (control, treated, inhibition, significance): 94%, 74%, 21%, p<0.001
Carcinogen: N-BUTYL-N-(4-HYDROXYBUTYL)NITROSAMINE, 3817-11-6, Dose [Inhibitor]: 240 MG/KG DIET DAILY STARTING 1 WK AFTER LAST CARCINOGEN DOSE AND CONTINUING FOR DURATION OF STUDY (STUDY DURATION: 6 MO, Route [Inhibitor]: ORAL, Species: RAT, Strain/Sex: F344/MALE, Target Tissue: Type of Lesion: BLADDER: TRANSITIONAL CELL CARCINOMA (HIGH GRADE), Dose [Carcinogen]: 200 MG IN 0.5 ML OF 20% ETHANOL 2/WK FOR 6 WK, Promoter: NONE USED
  tumour outcome (control, treated, inhibition, significance): 9/22 (41%), 4/21(19%), 54%, p<.05
Carcinogen: N-METHYL-N'-NITRO-N-NITROSOGUANIDINE, 70-25-7, Dose [Inhibitor]: 34 NMOL ONCE 0.5 HR BEFORE CARCINOGEN APPLICATION (STUDY DURATION: 25 WK), Route [Inhibitor]: DERMAL, Species: MOUSE, Strain/Sex: CD-1/FEMALE, Target Tissue: Type of Lesion: SKIN: PAPILLOMA, Dose [Carcinogen]: 5 UMOL IN 0.2 ML ACETONE ONCE 0.5 HR AFTER AGENT TREATMENT, Promoter: 12-O-TETRADECANOYLPHORBOL-13-ACETATE, 16561-29-8
  tumour outcome (control, treated, inhibition, significance): 92%, 96%, -4%, not significant
Carcinogen: N-METHYL-N-NITROSOUREA, 684-93-5, Dose [Inhibitor]: 12.5 MG/KG DAILY IN DIET STARTING 1 D AFTER LAST CARCINOGEN INJECTION AND CONTINUING FOR 256 D (STUDY DURATION: 285 D), Route [Inhibitor]: ORAL, Species: RAT, Strain/Sex: WISTAR-LEWIS/FEMALE, Target Tissue: Type of Lesion: URINARY BLADDER: PAPILLARY UROTHELIAL TUMOR, Dose [Carcinogen]: 1.5 MG IN 0.15 ML SALINE INJECTED INTO A SURGICALLY EXPOSED BLADDER 1/2 WK FOR A TOTAL OF 3 INJECTIONS, Promoter: NONE USED
  tumour outcome (control, treated, inhibition, significance): 8/30 (27%), 2/21 (10%), 63%, p<0.05
